# Laboratory results published in patent publication US5491146A, “Hydroxylated erythro-hydroxynonyladenines and related analogs” (Cypros Pharmaceutical Corporation, priority 1994, dated 1996).
# Like-named read-outs stand apart in the source and are kept apart here.
# Assays:
# [1] = system: intact hearts from male Sprague-Dawley rats; test: Langendorf isolated perfused heart, simulated ischemia 20 minutes then reoxygenation; set-up: species or system rat; conditions: for % fibr.: isolated rat hearts, 10 min drug treatment, 20 min ischemia; for # fibrillating: number of hearts fibrillating out of Total #
# Description: The tests carried out by Dr. Rodgers used a widely-used protocol known as a "Langendorf" preparation, which involves removing intact hearts from sacrificed lab animals (male Sprague-Dawley rats were used), and perfusing the hearts with liquids containing controlled quantities (or deficits) of oxygen and glucose for fixed periods of time. […] The left atrium is filled at 15 cm H2 O pressure, and the left ventricle ejects into a buffer-filled column against a pressure which equates to 72 mm Hg, except during ischemic periods. The perfusate was Krebs-Henseleit buffer with HCO3 (25 mM), Ca^++ (2.2 mM), and glucose (10 mM). […] Pefusate and ambient temperatures were held at 37° C. and the hearts were allowed to beat spontaneously.
# Following stabilization and treatment, the hearts were subjected to simulated ischemia for 20 minutes; no oxygen was added to the perfusate during this period. When the ischemic period ended, oxygen was again added to the perfusion buffer, and the following parameters were measured over a period of 10 minutes:
# LVPP--left ventricular pulse pressures (time-dependent pressures, calculated as peak pressure minus diastolic pressure, in mm Hg, millimeters of mercury column)
# LVEDP--left ventricular end diastolic pressure (i.e, time-dependent pressures as the ventricle relaxed during diastolic filling, in mm Hg)
# CFR--coronary flow rate (mL/min)
# HR--spontaneous heartbeat rate (beats/min)
# ECG--electrocardiogram (surface potential, in mV)
# [2] = mammalian bloodstream; cited from earlier work
# [3] = molecular target: adenosine deaminase (ADA); conditions: read-out: Ki value (ADA); background statement; cited from earlier work
# [4] = molecular target: T1, calf intestinal ADA (Type III, Sigma Chemical Company) (Bos taurus, UniProt P56658); test: Testing for ADA inhibition, direct spectrophotometric assay at 265 nm; assay type: biochemical; conditions: for Ki: calf intestinal ADA, 30° C.; for inhibition of ADA activity (in words): tested as in Example 2
# T1 construct: purchased Sigma Chemical Company Type III; host or cells: calf intestine
# T1 sequence (P56658 1-363): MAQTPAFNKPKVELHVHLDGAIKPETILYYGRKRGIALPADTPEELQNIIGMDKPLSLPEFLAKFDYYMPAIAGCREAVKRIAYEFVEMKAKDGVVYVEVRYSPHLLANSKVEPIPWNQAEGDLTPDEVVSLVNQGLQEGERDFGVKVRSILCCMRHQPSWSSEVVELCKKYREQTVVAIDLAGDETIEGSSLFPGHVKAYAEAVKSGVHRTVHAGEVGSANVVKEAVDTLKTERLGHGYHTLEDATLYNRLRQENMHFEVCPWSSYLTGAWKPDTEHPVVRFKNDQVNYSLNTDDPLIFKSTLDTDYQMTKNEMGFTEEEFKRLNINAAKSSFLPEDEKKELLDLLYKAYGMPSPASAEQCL
# Method: Compounds [10] (the 9-hydroxy analog), [23] (the 8-hydroxy analog), and [14] (the 8,9-dihydroxy analog) were tested for ADA inhibition activity, using calf intestinal ADA (Type III, Sigma Chemical Company) measured at 30° C. by direct spectrophotometric assays at 265 nm, as described in Harriman et al 1992.
# Several of the analogs described in Example 3 were tested for inhibition of the adenosine deaminase (ADA) enzyme, using the procedures described in Example 2.
# [5] = animals; cited from earlier work
# [6] = isolated rat hearts after ischemia
# [7] = read-out: Ki value (ADA inhibition)
# [8] = read-out: Ki values (ADA inhibition)
Structure (SMILES),% fibr. [1],# fibrillating [1],"Ki [4, 7]","Ki [4, 8]",inhibition of ADA activity (in words) [4],also measured
"CCCCCC[C@H]([C@H](C)O)n1cnc2c(N)ncnc21 (relative stereo) [EHNA, erythro-hydroxynonyladenine]",14%,1,–,–,–,"LVPP (left ventricular pulse pressure) after ischemia [1, 6]: moderate increase; coronary flow rate after ischemia [1, 6]: moderate increase; incidence of fibrillation (in words) [1, 6]: reduced the incidence of fibrillation; metabolism and clearance from bloodstream [2]: metabolized and cleared from the mammalian bloodstream fairly rapidly; Ki [3]: ~4 nM"
"C[C@H](O)[C@@H](CCCCC(O)CO)n1cnc2c(N)ncnc21 (single isomer, unassigned) [Compound 14]",–,–,6 nM,6 nM,effective inhibitor of ADA activity,–
"CC(O)CCCC[C@H]([C@H](C)O)n1cnc2c(N)ncnc21 (single isomer, unassigned) [Compound 23]",–,–,11 nM,11 nM,shown to inhibit ADA activity,–
C[C@H](O)[C@@H](CCCCCCO)n1cnc2c(N)ncnc21 [Compound 10],11%,1,3.4 nM,3.4 nM,effective inhibitor of ADA activity,"LVPP (left ventricular pulse pressure) after ischemia [1, 6]: moderate increase; coronary flow rate after ischemia [1, 6]: moderate increase; incidence of fibrillation (in words) [1, 6]: reduced the incidence of fibrillation; LVEDP (left ventricular end diastolic pressure), protection against muscle stiffening ([1]; isolated rat hearts after ischemia, compared with EHNA): significantly higher level of protection against muscle stiffening than unmodified EHNA"
"C[C@H](O)[C@@H](CCCCCCOC(=O)c1ccccc1)n1cnc2c(N)ncnc21 [Compound 25, 9-[9-Benzoyloxy-2(S)-hydroxy-3(R)-nonyl]adenine]",–,–,–,–,potency in the desired range,–
"C[C@H](O)[C@@H](CCCCCCCl)n1cnc2c(N)ncnc21 [Compound 29, 9-[9-chloro-2(S)-hydroxy-3(R)-nonyl]adenine]",–,–,–,3.7 nM,potency in the desired range,–
COC(=O)CCCCC[C@H]([C@H](C)O)n1cnc2c(N)ncnc21 [Compound 31],–,–,–,5 nM,potency in the desired range,–
"C=CCCCC[C@H]([C@H](C)O)n1cnc2c(N)ncnc21 [Compound 32, 9-[2(S)-hydroxy-3(R)-non-8-enyl]adenine]",–,–,–,–,potency in the desired range,Ki ([4]; Ki values (ADA inhibition)): 2.5 nM
"CCN(CC)C(=S)SSC(=S)N(CC)CC [Disulfiram, disulfiram]",40%,2,–,–,–,–
"OC[C@H]1O[C@@H](n2cnc3c2NC=NC[C@H]3O)C[C@@H]1O [dCF, deoxycoformycin]",–,–,–,–,–,toxic side effects [5]: serious and unpredictable toxic side effects in some animals
